For this test, the target named is T1, recombinant human E-selectin/CD63E Fc Chimera (Homo sapiens, UniProt P16581).
T1 construct: Fc (human IgG Fc fusion partner); purchased R & D systems
Briefly: E-Selectin Activity - Analysis by SPR. It is filed as binding. Conditions: Biacore X100, E-selectin captured on anti-human IgG (Fc) chip. The protocol: Surface Plasmon Resonance (SPR) measurements were performed on a Biacore X100 instrument (GE Healthcare). A CM5 sensor chip (GE Healthcare) was used for the interaction between E-selectin and GMI compound. Anti-human IgG (Fc) antibody (GE Healthcare) was immobilized onto the chip by amine coupling according to the manufacturer's instructions. In brief, after a 7-min injection (flow rate of 5 μl/min) of 1:1 mixture of N-ethyl-N′-(3-dimethylaminopropyl) carbodiimide hydrochloride and N-hydroxysuccinimide, anti-human IgG (Fc) antibody (25 μg/ml in 10 mM sodium acetate buffer, pH 5.0) was injected using a 6-min injection at 5 μl/min. Remaining activated groups were blocked by injecting 1 M ethanolamine/HCl, pH 8.5. The recombinant human E-selectin/CD63E Fc Chimera (50 μg/ml) (R & D systems) was injected into the experimental cell until 6000-7000 RU was captured onto the antibody surface. No recombinant human E-selectin/CD63E was injected into the control cell. Increasing concentrations of GMI compound samples were injected at 30 μl/min into both flow cells and all sensorgrams were recorded against the control. Regeneration of the anti-human IgG (Fc) surface was achieved by injecting 3M magnesium chloride, followed by 50 mM sodium hydroxide. Data were analyzed using Biacore X100 evaluation/BIA evaluation 4.1.1 software (GE Healthcare) and Graphad prism 6 software.
(In SPR one partner is held on a chip, and binding of the other changes the refractive index at the surface.)

Experimental findings from patent publication US20220257775A1 (GLYCOMIMETICS, INC., priority 2019, published 2022) are described below.

T1 sequence (P16581 with tags, fused parts or gaps limits assumed): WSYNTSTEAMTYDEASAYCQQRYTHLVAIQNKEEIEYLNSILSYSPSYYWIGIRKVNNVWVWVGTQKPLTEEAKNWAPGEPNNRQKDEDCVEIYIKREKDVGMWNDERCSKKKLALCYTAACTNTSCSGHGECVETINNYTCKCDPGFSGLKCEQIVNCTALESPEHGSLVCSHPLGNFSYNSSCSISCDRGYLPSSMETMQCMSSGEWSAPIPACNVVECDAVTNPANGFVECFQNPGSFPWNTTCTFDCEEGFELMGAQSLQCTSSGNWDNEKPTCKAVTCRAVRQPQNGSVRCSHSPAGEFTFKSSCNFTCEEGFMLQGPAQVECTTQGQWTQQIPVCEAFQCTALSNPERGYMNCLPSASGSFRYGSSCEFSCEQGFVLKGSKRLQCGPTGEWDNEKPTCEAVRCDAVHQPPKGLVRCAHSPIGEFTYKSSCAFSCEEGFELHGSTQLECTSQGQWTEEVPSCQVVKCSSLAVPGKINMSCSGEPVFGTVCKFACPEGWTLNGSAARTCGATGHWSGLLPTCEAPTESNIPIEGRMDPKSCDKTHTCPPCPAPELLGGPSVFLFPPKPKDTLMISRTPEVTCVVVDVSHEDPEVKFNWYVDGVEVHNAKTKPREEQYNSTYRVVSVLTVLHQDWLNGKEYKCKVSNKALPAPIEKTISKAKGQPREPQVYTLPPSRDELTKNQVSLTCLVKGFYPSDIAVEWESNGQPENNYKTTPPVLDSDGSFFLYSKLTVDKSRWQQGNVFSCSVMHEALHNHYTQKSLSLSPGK

In general, Kd refers to the free concentration of one partner at which half of the binding sites on the other are occupied at equilibrium, for simple one-to-one binding. Turning to `CC[C@H]1C[C@@H](C(=O)OC)C[C@@H](O[C@@H]2O[C@H](CO)[C@H](O)[C@H](O[C@@H](CC3CCCCC3)C(=O)O)[C@H]2NC(C)=O)[C@@H]1O[C@@H]1O[C@@H](C)[C@@H](O)[C@@H](O)[C@@H]1O` [Compound 3, reference compound], the Kd stood at 2260 nM.
On to `CC[C@H]1C[C@@H](C(=O)NCCNC(=O)CCOCCOCCOCCOCCOCCOCCOCCOCCOCCOCCOCCOCCOCCOCCOCCOCCOCCC(=O)NCCNC(=O)[C@@H]2C[C@H](CC)[C@@H](O[C@@H]3O[C@@H](C)[C@@H](O)[C@@H](O)[C@@H]3O)[C@H](O[C@@H]3O[C@H](CO)[C@H](O)[C@H](O[C@@H](CC4CCCCC4)C(=O)O)[C@H]3NC(C)=O)C2)C[C@@H](O[C@@H]2O[C@H](CO)[C@H](O)[C@H](O[C@@H](CC3CCCCC3)C(=O)O)[C@H]2NC(C)=O)[C@@H]1O[C@@H]1O[C@@H](C)[C@@H](O)[C@@H](O)[C@@H]1O` [Compound 11], for which the Kd was determined as 8.5 nM.
To `CC[C@H]1C[C@@H](C(=O)NCCNC(=O)CCOCCOCCOCCOCCOCCOCCOCCOCCOCCOCCOCCOCCOCCOCCOCCOCCOCCOCCOCCOCCOCCOCCOCCOCCOCCC(=O)NCCNC(=O)[C@@H]2C[C@H](CC)[C@@H](O[C@@H]3O[C@@H](C)[C@@H](O)[C@@H](O)[C@@H]3O)[C@H](O[C@@H]3O[C@H](CO)[C@H](O)[C@H](O[C@@H](CC4CCCCC4)C(=O)O)[C@H]3NC(C)=O)C2)C[C@@H](O[C@@H]2O[C@H](CO)[C@H](O)[C@H](O[C@@H](CC3CCCCC3)C(=O)O)[C@H]2NC(C)=O)[C@@H]1O[C@@H]1O[C@@H](C)[C@@H](O)[C@@H](O)[C@@H]1O` [Compound 12] belongs 3.7 nM; to `CC[C@H]1C[C@@H](C(=O)NCCNC(=O)CCOCCOCCOCCOCCOCCOCCOCCOCCOCCOCCOCCOCCOCCOCCOCCOCCOCCOCCOCCOCCOCCC(=O)NCCNC(=O)[C@@H]2C[C@H](CC)[C@@H](O[C@@H]3O[C@@H](C)[C@@H](O)[C@@H](O)[C@@H]3O)[C@H](O[C@@H]3O[C@H](CO)[C@H](O)[C@H](O[C@@H](CC4CCCCC4)C(=O)O)[C@H]3NC(C)=O)C2)C[C@@H](O[C@@H]2O[C@H](CO)[C@H](O)[C@H](O[C@@H](CC3CCCCC3)C(=O)O)[C@H]2NC(C)=O)[C@@H]1O[C@@H]1O[C@@H](C)[C@@H](O)[C@@H](O)[C@@H]1O` [Compound 13], 4.7 nM; to `CC[C@H]1C[C@@H](C(=O)NCCNC(=O)CCOCCOCCOCCOCCOCCOCCOCCOCCOCCOCCOCCOCCOCCC(=O)NCCNC(=O)[C@@H]2C[C@H](CC)[C@@H](O[C@@H]3O[C@@H](C)[C@@H](O)[C@@H](O)[C@@H]3O)[C@H](O[C@@H]3O[C@H](CO)[C@H](O)[C@H](O[C@@H](CC4CCCCC4)C(=O)O)[C@H]3NC(C)=O)C2)C[C@@H](O[C@@H]2O[C@H](CO)[C@H](O)[C@H](O[C@@H](CC3CCCCC3)C(=O)O)[C@H]2NC(C)=O)[C@@H]1O[C@@H]1O[C@@H](C)[C@@H](O)[C@@H](O)[C@@H]1O` [Compound 14], 6.6 nM.
The figure for `CC[C@H]1C[C@@H](C(=O)NCCNC(=O)CCOCCOCCOCCOCCOCCOCCOCCOCCOCCOCCC(=O)NCCNC(=O)[C@@H]2C[C@H](CC)[C@@H](O[C@@H]3O[C@@H](C)[C@@H](O)[C@@H](O)[C@@H]3O)[C@H](O[C@@H]3O[C@H](CO)[C@H](O)[C@H](O[C@@H](CC4CCCCC4)C(=O)O)[C@H]3NC(C)=O)C2)C[C@@H](O[C@@H]2O[C@H](CO)[C@H](O)[C@H](O[C@@H](CC3CCCCC3)C(=O)O)[C@H]2NC(C)=O)[C@@H]1O[C@@H]1O[C@@H](C)[C@@H](O)[C@@H](O)[C@@H]1O` [Compound 15] is 6 nM.
To `CC[C@H]1C[C@@H](C(=O)NCCNC(=O)CCOCCOCCOCCOCCOCCOCCC(=O)NCCNC(=O)[C@@H]2C[C@H](CC)[C@@H](O[C@@H]3O[C@@H](C)[C@@H](O)[C@@H](O)[C@@H]3O)[C@H](O[C@@H]3O[C@H](CO)[C@H](O)[C@H](O[C@@H](CC4CCCCC4)C(=O)O)[C@H]3NC(C)=O)C2)C[C@@H](O[C@@H]2O[C@H](CO)[C@H](O)[C@H](O[C@@H](CC3CCCCC3)C(=O)O)[C@H]2NC(C)=O)[C@@H]1O[C@@H]1O[C@@H](C)[C@@H](O)[C@@H](O)[C@@H]1O` [Compound 16] belongs 6 nM; to `CC[C@H]1C[C@@H](C(=O)NCCNC(=O)CCOCCOCCOCCOCCC(=O)NCCNC(=O)[C@@H]2C[C@H](CC)[C@@H](O[C@@H]3O[C@@H](C)[C@@H](O)[C@@H](O)[C@@H]3O)[C@H](O[C@@H]3O[C@H](CO)[C@H](O)[C@H](O[C@@H](CC4CCCCC4)C(=O)O)[C@H]3NC(C)=O)C2)C[C@@H](O[C@@H]2O[C@H](CO)[C@H](O)[C@H](O[C@@H](CC3CCCCC3)C(=O)O)[C@H]2NC(C)=O)[C@@H]1O[C@@H]1O[C@@H](C)[C@@H](O)[C@@H](O)[C@@H]1O` [Compound 17], 5.1 nM.
For `CC[C@H]1C[C@@H](C(=O)NCCNC(=O)CCOCCOCCC(=O)NCCNC(=O)[C@@H]2C[C@H](CC)[C@@H](O[C@@H]3O[C@@H](C)[C@@H](O)[C@@H](O)[C@@H]3O)[C@H](O[C@@H]3O[C@H](CO)[C@H](O)[C@H](O[C@@H](CC4CCCCC4)C(=O)O)[C@H]3NC(C)=O)C2)C[C@@H](O[C@@H]2O[C@H](CO)[C@H](O)[C@H](O[C@@H](CC3CCCCC3)C(=O)O)[C@H]2NC(C)=O)[C@@H]1O[C@@H]1O[C@@H](C)[C@@H](O)[C@@H](O)[C@@H]1O` [Compound 18], the Kd worked out at 3.5 nM.
Take `CC[C@H]1CC(C(=O)NCCNC(=O)CCC(=O)NCCNC(=O)[C@@H]2C[C@H](CC)[C@@H](O[C@@H]3O[C@@H](C)[C@@H](O)[C@@H](O)[C@@H]3O)[C@H](O[C@@H]3O[C@H](CO)[C@H](O)[C@H](O[C@@H](CC4CCCCC4)C(=O)O)[C@H]3NC(C)=O)C2)C[C@@H](O[C@@H]2O[C@H](CO)[C@H](O)[C@H](O[C@@H](CC3CCCCC3)C(=O)O)[C@H]2NC(C)=O)[C@@H]1O[C@@H]1O[C@@H](C)[C@@H](O)[C@@H](O)[C@@H]1O` (stereo partly shown) [Compound 19]: the Kd amounted to 10.2 nM.
To `CC[C@H]1C[C@@H](C(=O)NCCNC(=O)CCOCCOCCOCCOCCOCCOCCOCCOCCOCCOCCC(=O)NCCNC(=O)[C@@H]2C[C@H](CC)[C@@H](O[C@@H]3O[C@@H](C)[C@@H](O)[C@@H](O)[C@@H]3O)[C@H](O[C@@H]3O[C@H](CO)[C@H](O)[C@H](O[C@@H](CC4CCCCC4)C(=O)N4CCC4)[C@H]3NC(C)=O)C2)C[C@@H](O[C@@H]2O[C@H](CO)[C@H](O)[C@H](O[C@@H](CC3CCCCC3)C(=O)N3CCC3)[C@H]2NC(C)=O)[C@@H]1O[C@@H]1O[C@@H](C)[C@@H](O)[C@@H](O)[C@@H]1O` [Compound 20] belongs 0.8 nM; to `CC[C@H]1C[C@@H](C(=O)NCCNC(=O)CCOCCOCCOCCOCCOCCOCCOCCOCCOCCOCCC(=O)NCCNC(=O)[C@@H]2C[C@H](CC)[C@@H](O[C@@H]3O[C@@H](C)[C@@H](O)[C@@H](O)[C@@H]3O)[C@H](O[C@@H]3O[C@H](CO)[C@H](O)[C@H](O[C@@H](CC4CCCCC4)C(=O)N(C)C)[C@H]3NC(C)=O)C2)C[C@@H](O[C@@H]2O[C@H](CO)[C@H](O)[C@H](O[C@@H](CC3CCCCC3)C(=O)N(C)C)[C@H]2NC(C)=O)[C@@H]1O[C@@H]1O[C@@H](C)[C@@H](O)[C@@H](O)[C@@H]1O` [Compound 21], 18.3 nM.
To `CC[C@H]1C[C@@H](C(=O)NCCNC(=O)CCOCCOCCOCCOCCC(=O)NCCNC(=O)[C@@H]2C[C@H](CC)[C@@H](O[C@@H]3O[C@@H](C)[C@@H](O)[C@@H](O)[C@@H]3O)[C@H](O[C@@H]3O[C@H](CO)[C@H](O)[C@H](O[C@@H](CC4CCCCC4)C(=O)N4CCC4)[C@H]3NC(C)=O)C2)C[C@@H](O[C@@H]2O[C@H](CO)[C@H](O)[C@H](O[C@@H](CC3CCCCC3)C(=O)N3CCC3)[C@H]2NC(C)=O)[C@@H]1O[C@@H]1O[C@@H](C)[C@@H](O)[C@@H](O)[C@@H]1O` [Compound 23] belongs 2.8 nM; to `CC[C@H]1C[C@@H](C(=O)NCCNC(=O)CCOCCOCCOCCOCCOCCOCCC(=O)NCCNC(=O)[C@@H]2C[C@H](CC)[C@@H](O[C@@H]3O[C@@H](C)[C@@H](O)[C@@H](O)[C@@H]3O)[C@H](O[C@@H]3O[C@H](CO)[C@H](O)[C@H](O[C@@H](CC4CCCCC4)C(=O)N4CCC4)[C@H]3NC(C)=O)C2)C[C@@H](O[C@@H]2O[C@H](CO)[C@H](O)[C@H](O[C@@H](CC3CCCCC3)C(=O)N3CCC3)[C@H]2NC(C)=O)[C@@H]1O[C@@H]1O[C@@H](C)[C@@H](O)[C@@H](O)[C@@H]1O` [Compound 24], 2.4 nM.
The figure for `CC[C@H]1C[C@@H](C(=O)NCCNC(=O)CCOCCOCCC(=O)NCCNC(=O)[C@@H]2C[C@H](CC)[C@@H](O[C@@H]3O[C@@H](C)[C@@H](O)[C@@H](O)[C@@H]3O)[C@H](O[C@@H]3O[C@H](CO)[C@H](O)[C@H](O[C@@H](CC4CCCCC4)C(=O)N4CCC4)[C@H]3NC(C)=O)C2)C[C@@H](O[C@@H]2O[C@H](CO)[C@H](O)[C@H](O[C@@H](CC3CCCCC3)C(=O)N3CCC3)[C@H]2NC(C)=O)[C@@H]1O[C@@H]1O[C@@H](C)[C@@H](O)[C@@H](O)[C@@H]1O` [Compound 25] is 3 nM; for `CC[C@H]1C[C@@H](C(=O)NCCNC(=O)c2cn(CCOCCOCCn3cc(C(=O)NCCNC(=O)[C@@H]4C[C@H](CC)[C@@H](O[C@@H]5O[C@@H](C)[C@@H](O)[C@@H](O)[C@@H]5O)[C@H](O[C@@H]5O[C@H](CO)[C@H](O)[C@H](O[C@@H](CC6CCCCC6)C(=O)O)[C@H]5NC(C)=O)C4)nn3)nn2)C[C@@H](O[C@@H]2O[C@H](CO)[C@H](O)[C@H](O[C@@H](CC3CCCCC3)C(=O)O)[C@H]2NC(C)=O)[C@@H]1O[C@@H]1O[C@@H](C)[C@@H](O)[C@@H](O)[C@@H]1O` [Compound 28] it is 3.2 nM.
